Results reported in patent publication US20250368639A1, “SOLID FORMS OF A COMPOUND FOR TREATING OR PREVENTING HYPERURICEMIA OR GOUT” (ATOM THERAPEUTICS CO., LTD, priority 2022, published 2025).
Converted amounts (≈) assume the structure as drawn. Like-named read-outs stand apart in the source and are kept apart here.

Assays:
[1] = system: normal liver cells; assay: Toxicity to normal liver cells; assay type: cell-based; conditions: in comparison with other treatments
[2] = biological target: T1, URAT1 (Homo sapiens, UniProt Q96S37); assay: Inhibitory effect on URAT1; conditions: in comparison with other treatments
T1 sequence (Q96S37 1-553): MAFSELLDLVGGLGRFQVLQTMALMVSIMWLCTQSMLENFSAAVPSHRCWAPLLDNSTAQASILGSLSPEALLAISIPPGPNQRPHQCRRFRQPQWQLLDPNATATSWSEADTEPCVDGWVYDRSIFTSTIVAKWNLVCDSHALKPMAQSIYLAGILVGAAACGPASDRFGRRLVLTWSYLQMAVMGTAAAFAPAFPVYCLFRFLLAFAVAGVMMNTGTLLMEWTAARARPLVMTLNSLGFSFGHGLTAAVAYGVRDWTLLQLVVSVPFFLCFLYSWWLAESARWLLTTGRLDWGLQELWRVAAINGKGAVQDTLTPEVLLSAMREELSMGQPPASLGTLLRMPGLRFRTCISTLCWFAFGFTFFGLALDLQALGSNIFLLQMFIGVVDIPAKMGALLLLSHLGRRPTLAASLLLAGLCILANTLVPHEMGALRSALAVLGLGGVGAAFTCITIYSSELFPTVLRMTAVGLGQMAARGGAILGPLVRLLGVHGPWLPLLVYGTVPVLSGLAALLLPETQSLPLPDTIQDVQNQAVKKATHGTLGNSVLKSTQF

[3] = rat, in vivo
[4] = Uric acid excretion in mice; assay type: in vivo; conditions: in comparison with other treatments
[5] = Solubility in water, buffers and bio-relevant media (37° C., 24 h shaking, HPLC); assay type: physicochemical; conditions: for Solubility: 37° C., 24 h
Protocol: The solubility of Form 1, Form 2, Form 5D, Form 6, Form 8, and Form 11 was analyzed in water, 0.1NaqueousHCl, pH4.5 acetate buffer solution, pH6.8 phosphate buffer solution, simulated gastric fluid (SGF), Fasted State Simulated Intestinal Fluid (FaSSIF), and Fed State Simulated Intestinal Fluid (FeSSIF).
About 5 mg or 10 mg of sample was weighed out into each vial and mixed with about 5 ml of medium to form a solution. The target concentration for the potassium salt in water was 2 mg/ml; and the target concentration for all other forms were 1 mg/mL. All samples were kept shaking at 200 rounds per minute (rpm) under 37° C. for 24 hours. The pH value of these samples were determined after shaking for 24 hours. Subsequently, they were centrifuged at the speed of 12000 rpm for 2 mins. The supernatant was diluted with methanol as necessary, and the concentrations were determined by HPLC. When the solubility of potassium salt was tested in water, the supernatant was diluted 100 times, while no other samples were diluted. The HPLC analysis utilizes Agilent Eclipse XDB-C8 4.6*150 mm, 5 μm column at 40° C., a mobile phase of 0.1% TFA: ACN=70:30, an injection volume of 10 μl, a flow rate of 1.0 ml/min, a diluent of methanol, and a detection wavelength of 234 nm.

[6] = Single-dose pharmacokinetic study, oral and intravenous, in SD rats; assay type: in vivo, SD rat; conditions: for AUC(0-inf): read-out: AUCINF—pred; for half-life: read-out: HL_Lambda_z (T1/2) (converted); for Vd/F: read-out: Vz—F—pred;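 on AUClast: AUClast in h·ng/mL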
Protocol: Form 1, Form 2, and Form 5D were each evaluated via a single-dose pharmacokinetic study following oral and intravenous administration in SD rats. […] Form 1, Form 2, and Form 5Dwere evaluated by rat pharmacokinetics study.
Male SD rat was purchased from Shanghai Sippr B&K Laboratory Animals Co., Ltd. The weight was 180 g˜200 g.
20% HP-β-CD was prepared from dissolving20 g of HP-β-CD (from Sigma) in 100 mL purified water. 0.5% CMC-Na was prepared from dissolving 1 g of CMC-Na (from Aladdin) in 200 mL purified water. The solutions were stored at 2-8 degree.
(§1) Group 1:4.95 mg (equivalent to 4.50 mg of anhydrous free base) of Form 1 was weighed out into a 20 ml bottle, and totally dissolved by 0.225 mL DMSO by sonication. After that, 4.275 mL of 20% HP-β-CD was added, mixed well by sonication. Finally, the pH value was adjusted to 7.0 by sodium hydroxide solution. The clear solution was obtained, and the concentration was 1 mg/mL.
Group 2:10.08 mg (equivalent to 9.164 mg of anhydrous free base) of Form 1 was weighed out into a 20 ml bottle, and then 9.164 mL of 0.5% CMC-Na was added. A white suspension was formed after sonicated by ultrasonic cell disruptor, and the concentration was 1 mg/mL.
Group 3:9.47 mg of Form 2 was weighed out into a 20 ml bottle, and then 9.470 mL of 0.5% CMC-Na was added. After sonicated, it was mixed well by homogenizer for 2 minutes. Finally, a white suspension was formed, and the concentration was 1 mg/mL.
Group 4:9.80 mg (equivalent to 8.909 mg of free base) of Form 5Dwas weighed out into a 20 mL bottle, and then 8.909 mL of 0.5% CMC-Na was added. After sonicated, it was mixed well by homogenizer for 2 minutes. Finally, a white suspension was formed, and the concentration was 1 mg/mL.
as §1, with “Group 5:1.94” for “Group 1:4.95”, “to 1.763” for “to 4.50”, “by 0.088” for “by 0.225”, “that, 1.675” for “that, 4.275”, “was 0.2” for “was 1”
The dose of intravenous administration was 1 mg/kg and 5 mg/kg, respectively. The oral dose was 10 mg/kg. Animals were fasted overnight before drug administration. After the drug administration, the rats were fed at the 4 hours.
About 150˜200 μL of blood was collected at the initial time (only intravenous), and at 0.25, 0.5, 1, 2, 4, 6, 8 and 24 h by jugular venipuncture blooding method. EDTA-K2 was selected as anticoagulant. Blood samples were centrifuged within one hour at 6000 rpm for 8 minutes (placed on wet ice before centrifugation). The supernatant was stored at −20° C. for LC-MS/MS analysis.
The computer program Microsoft Office Excel 2007 (Microsoft, USA) was used to process data and graphics. The pharmacokinetic parameters were calculated by WinNolin 6.4 software.

[7] = Dynamic vapor sorption/desorption (DVS); assay type: physicochemical; conditions: 25° C., 85% RH
Protocol: Moisture sorption/desorption data were collected on a SMS DVS intrinsic Vapor Sorption Analyzer under a nitrogen purge. The DVS experiment generally includes a moisture sorption step and a moisture desorption step. […] In other words, the sample is considered to have reached an equilibrium between moisture sorption and desorption under the relative humidity when dm/dt≤0.01%. The sample was maintained at the temperature of 25° C. with relative humidity varied from 0% to 95%, and back to 0% at an increment of 5% RH each step.

[8] = Suspensions for animal formulation in 0.5% CMC-Na (XRPD); assay type: physicochemical; conditions: about 30 mg in 30 ml, sonication
Protocol: About 30 mg of Form 1, Form 2, and Form 5D were each added into a respective 40 ml glass bottle and mixed with 30 ml of 0.5% CMC-Na solution. The solids were dispersed uniformly in the solution with the aid of sonication. After that, the solids were isolated by centrifugation, dried at room temperature, and the dry solid analyzed with XRPD.

[9] = Slurry stability in purified water (XRPD); assay type: physicochemical; conditions: stirred overnight at room temperature
Protocol: About 30 mg of Form land Form 5D, Form 6, and Form 8 were mixed with about 2.5 ml of purified water, and the mixtures were stirred for overnight at room temperature. The wet solids were isolated by centrifugation, and further dried in vacuum for 2.5 hours before being analyzed with XRPD.

[10] = male SD rats, oral 10 mg/kg, Average (Table 11)
[11] = male, SD, rat, plasma, po, 10 mg/kg, male SD rats, oral 10 mg/kg, Average (Table 11)
[12] = male, SD, rat, plasma, po, 10 mg/kg, male SD rats, oral 10 mg/kg, individual rats 401/402/403 (c1/c2/c3)

In the case of `CCc1nc2ccccn2c1C(=O)c1cc(Br)c(O)c(C#N)c1` [Compound I, 3-bromo-5-[(2-ethylimidazo[1,2-a]pyridin-3-yl)carbonyl]-2-hydroxybenzonitrile], the “Toxicity to normal liver cells” value [1] is reported as “reduce the toxicity to normal liver cells”, the “Inhibitory effect on URAT1” value [2] is reported as “significantly improve the inhibitory effect on URAT1” and the “Toxicity (oral maximum tolerated dose, acute toxicity test)” value [3] is reported as “much lower than other treatments”. The Uric acid excretion [4] was “significantly increase uric acid excretion in mice”.
Compound `CCc1nc2ccccn2c1C(=O)c1cc(Br)c(O)c(C#N)c1` [Form 5D, 3-bromo-5-[(2-ethylimidazo[1,2-a]pyridin-3-yl)carbonyl]-2-hydroxybenzonitrile] has a Solubility ([5]; 0.1N HCl) of 8.3 µg/mL (≈ 22.4 µM), a Solubility ([5]; FaSSIF) of 55.8 µg/mL (≈ 151 µM) and a Solubility ([5]; FeSSIF) of 5.4 µg/mL (≈ 14.6 µM). The Solubility ([5]; SGF) was 7.4 µg/mL (≈ 20 µM), the Solubility ([5]; Water) was 0.8 µg/mL (≈ 2.16 µM) and the Solubility ([5]; pH 4.5 acetate buffer) was 1.3 µg/mL (≈ 3.51 µM). For the same compound, the Solubility ([5]; pH 6.8 phosphate buffer) was 47.7 µg/mL (≈ 129 µM), the “Appearance / solubility in water” value ([5]; water, shaken about 24 hours, compared with Form 1) was “reduced solubility in water” and the “Exposure and bioavailability (words, comparison)” value ([6]; SD rats, oral administration 10 mg/kg, 10 mg/kg) was “approximately the same as results from third parties”. The AUClast [6, 10] was 91914.8 ng·h/mL, the “Cl—F—pred” value [6, 10] was 1.83 mL/min/kg and the F ([6]; male SD rats, oral 10 mg/kg, calculated by intravenous administration of 1 mg/kg, Average (Table 11)) was 52.96%. The Cmax [6, 11] was 8980 ng/mL, the MRT last [6, 11] was 5.95 h and the Tmax [6, 11] was 3.33 h. For the same compound, the AUC(0-inf) [6, 11] was 92700 ng·h/mL, the half-life [6, 11] was 3.4 h and the Vd/F [6, 11] was 0.53 L/kg. For the same compound, the AUC(0-t) [6, 12] was 84700 ng·h/mL, the Cmax [6, 12] was 8540 ng/mL and the MRT last [6, 12] was 6.11 h. The Tmax [6, 12] was 4 h, the AUC(0-inf) [6, 12] was 96600 ng·h/mL and the half-life [6, 12] was 3.55 h. The Vd/F [6, 12] was 0.53 L/kg, the “DVS (85% RH)” value [7] was 2.14% and the “Crystal form after dispersion in 0.5% CMC-Na solution (XRPD)” value [8] was “did not change”. For the same compound, the “Crystal form after slurry in purified water (XRPD)” value [9] was “transformed into Form 1”.
